Series [1] relates to Dermatophagoides pteronyssinus. In words: Repellence test method (invasion preventive method). In kind it is in vivo. Conditions: 1.0 g/m^2; for number of Acarina, 1 day later: untreated control 65; for number of Acarina, 2 days later: untreated control 132; for number of Acarina, 3 days later: untreated control 140. Here is the method: The repellence rates of the isomer of farnesylacetone and phytone under 1.0 g/m^2 conditions for a kind of Dermatophagoides pteronyssinus were determined by the repellence test method (invasion preventive method: “Processing Technique” vol. 33, No. 2, pp. 153-155 (1998) “titled: Acarina repellent-processed product repellence test basic manual” (Apareru Seihin-tou Hinshitsu Seinou Taisaku Kyougikai). The results are shown in Table 1 below. […]

The test system of series [2] is Dermatophagoides pteronyssinus. In words: Acarina repellence test by improved glass tube method. It counts as in vivo. To be noted: filter paper that absorbed farnesylacetone (0.1 g); 37±1° C., 75±5% Rh, 48 hr; gas concentration 5 μg/L. From the text:
The “glass tube method” known as one of the repellence tests for Acarina repellent-processed fibers was modified and used for a repellence test.
In the L-shaped glass tube in the test section was fixed filter paper with a two-sided tape inside the glass tube at part D, a test sample (filter paper that absorbed farnesylacetone (0.1 g)) was placed, and the glass tube opening on the D side was sealed with an airtight PARAFILM. Then, a medium containing 10,000 live Acarina (Dermatophagoides pteronyssinus) were placed in part A of the L-shaped glass Lube, and the glass end on the A side was sealed with a high density fabric capable of preventing passage of Acarina while maintaining air permeability. This test apparatus was stood still in a container maintained at 37±1° C., 75±5% Rh for 48 hr. […] The farnesylacetone concentration of the gas in part D was measured by gas chromatography. […]
Subsequently, the feed for attraction in part C was taken out, and the number of Acarina that invaded into the feed for attraction was counted by the following method. […] The number of Acarina floating in the upper layer was counted. […] The repellence rate of the test sample was determined by the following formula and found to be 98%. […]

For the next series, the system named is Dermatophagoides farinae. Briefly: Acarina repellence test by improved invasion prevention method (coated lid, vapor). In kind it is in vivo. To be noted: 25° C., 1 day. Here is the method:
The invasion prevention method was modified and a repellence test was performed.
As a lid to cover this box (4, 4′), two glass plates (length 5.5 cm, width 6 cm, thickness 1.3 mm) were prepared.
An ethanol solution of farnesylacetone (1%, 100 mg) was coated on the surface of one (test section side) of the two lids to cover the test box, and ethanol was air dried for 10 min. Then, a sample for Acarina attraction (50 mg) each was placed on both ends of the test box in the longitudinal direction, and the above-mentioned farnesylacetone-coated lid (4′) alone was placed, such that the surface coated with farnesylacetone faced the inside of the box. The box was placed in an incubator at 37° C. for 60 min until the farnesylacetone vapor filled the test section side of the test box. […] Thereafter, the test container was taken out, the number of Acarina that invaded into the feeds in the test section side and the control section side (50 and 1100, respectively, the rest of the Acarina fled) was counted. The repellence rate was determined by the following formula and found to be 95%. The concentration of farnesylacetone filled in the air at 37° C. was measured in the same manner as in Reference Example 1 and assumed to be 5 μg/L. Repellence rate (%)=(1− number of Acarina that invaded the test section/number of Acarina that invaded the control section)×100 […]

In another series the test system is human. In words: Odor and effect on human of sampled gas containing farnesylacetone. Conditions: gas containing 20,000 μg/L farnesylacetone.
A short description of series [3]: Measurement of farnesylacetone concentration in the air (gas chromatography, FID, absolute calibration). In kind it is physicochemical. To be noted: for farnesylacetone concentration in gas of sample bottle: 1 hr. The method, then: measurement of farnesylacetone concentration in the air
Farnesylacetone (1 mL) was placed in a 50 mL sample bottle, and a large magnetic stirring bar capable of rotating the air as well was placed therein. The bottle was placed neck-deep in an oil bath at 130° C. with rotation, and heated for 1 hr to saturate the inside of the sample bottle with farnesylacetone vapor. Thereafter, the gas in the sample bottle was taken by 5 mL with a gas tight syringe, and using gas chromatography with an FID detector, the concentration of farnesylacetone was measured by the absolute calibration method.
Farnesylacetone (1 mL) was placed in a 50 mL sample bottle, and a large magnetic stirring bar capable of rotating the air as well was placed therein. The bottle was placed neck-deep in a water bath at 60° C. with rotation, and heated for 1 hr to fill the inside of the sample bottle with farnesylacetone vapor. Thereafter, the gas in the sample bottle was taken by 5 mL with a gas tight syringe, and using gas chromatography with an FID detector, the concentration of farnesylacetone was measured by an absolute calibration method. […] Almost simultaneously, the gas (5 mL) in the sample bottle was taken again, a propeller was set in a 10 L beaker, the gas was added into the sealed beaker, the air in the beaker was stirred with the propeller for 10 min to dilute the gas 2,000-fold, whereby gas containing 0.01 μg/L farnesylacetone was obtained. The diluted gas (200 mL) was sampled with a syringe, a propeller was set in a 2 L flask, the gas was added into the sealed flask, the air in the beaker was stirred with the propeller for 10 min to further dilute the gas 10-fold, whereby gas containing 0.001 μg/L farnesylacetone was obtained.

A further series concerns Acarina. Briefly: Repellence test with supplied gas containing 0.001 μg/L farnesylacetone in modified glass plate test apparatus. It counts as in vivo. To be noted: gas containing 0.001 μg/L farnesylacetone at 1 mL/min; 37±1° C., 75±5% Rh; 4 hr. The method, then: A 2L flask containing the gas containing 0.001 μg/L farnesylacetone prepared in the same manner as in Reference Example 1 was equipped with a Teflon® tube (inner diameter 2 mm) for discharging the gas containing farnesylacetone and a Teflon® tube for charging water into the container using a metering pump, whereby an apparatus to send out (supply) the gas containing farnesylacetone at 1 mL/min by introducing water into the flask at 1 mL/min was manufactured. […]
Then the test apparatus was placed in a room with constant temperature and humidity at 37±1° C., 75±5% Rh, and the apparatus was operated for 3 hr for filling the test section with the above-mentioned concentration of farnesylacetone, after which an Acarina medium containing 10000 live Acarina were inserted from the gap of the lid and left standing for 4 hr. Then, the number of Acarina that invaded into the feed for attraction in each part C of the test section side and the control section side was counted. […] The number of Acarina floating in the upper layer was counted. The repellence rate was determined by the following formula and found to be 80%. […]

Experimental for human: Farnesylacetone (1 mL) was placed in a 50 mL sample bottle, and a large magnetic stirring bar capable of rotating the air as well was placed therein. The bottle was placed neck-deep in a water bath at 60° C. with rotation, and heated for 1 hr to fill the inside of the sample bottle with farnesylacetone vapor. Thereafter, the gas in the sample bottle was taken by 5 mL with a gas tight syringe, and using gas chromatography with an FID detector, the concentration of farnesylacetone was measured by an absolute calibration method. […] Almost simultaneously, the gas (5 mL) in the sample bottle was taken again, a propeller was set in a 10 L beaker, the gas was added into the sealed beaker, the air in the beaker was stirred with the propeller for 10 min to dilute the gas 2,000-fold, whereby gas containing 0.01 μg/L farnesylacetone was obtained. […]

As to `CC(=O)CCC=C(C)CCC=C(C)CCC=C(C)C` [trans-trans farnesylacetone, farnesylacetone], in series [1], the “repellence rate, 1 day later” value was 87.7%; the “repellence rate, 2 days later” value came out at 90.2%; the “repellence rate, 3 days later” value turned out to be 82.9%; the “number of Acarina, 1 day later” value is 8 Acarina. In series [1], the “number of Acarina, 2 days later” value was 13 Acarina and the “number of Acarina, 3 days later” value is 24 Acarina.

On to `CC(=O)CCCC(C)CCCC(C)CCCC(C)C` (stereo not drawn) [phytone], for which, in series [1], the “repellence rate, 1 day later” value was found to be 89.2%; the “repellence rate, 2 days later” value amounted to 90.9%; the “repellence rate, 3 days later” value turned out to be 83.6%; the “number of Acarina, 1 day later” value amounted to 7 Acarina. Also, in series [1], the “number of Acarina, 2 days later” value was 12 Acarina and the “number of Acarina, 3 days later” value is 23 Acarina.

Regarding `CC(=O)CC/C=C(\C)CC/C=C(\C)CCC=C(C)C` [farnesylacetone], the Repellence rate in series [2] was determined as 98%; with Dermatophagoides farinae (lid coated with 1% ethanol solution (100 mg), vapor only, 5 μg/L), 95%; with Acarina, 80%. The “number of Acarina that invaded into the feed in the test section side” value in the series on Dermatophagoides farinae (50,000 released, control section side 1100) stood at 50. For the same molecule, the “odor and effect of sampled gas on human” value with human was “had a strong odor, caused cough when inhaled in a large amount, and provoked uncomfortable feeling in human”. In addition, the “farnesylacetone concentration in gas of sample bottle” value in series [3] (60° C. water bath) is 20 µg/L; in series [3] (130° C. oil bath, saturated vapor), 20,000 μg/L. For the same molecule, the “farnesylacetone concentration of the gas in part D” value in series [3] (L-shaped glass tube of Example 1, after 48 hr at 37±1° C.) was around 5 µg/L. Moreover, the “concentration of farnesylacetone filled in the air” value in series [3] (at 37° C., test box of Example 2) was around 5 ng/mL.

For `CC(=O)CCC=C(C)CCC=C(C)CCC=C(C)C` [cis-cis rich farnesylacetone, farnesylacetone], in series [1], the “repellence rate, 1 day later” value came to 92.3%; the “repellence rate, 2 days later” value worked out at 88.6%; the “repellence rate, 3 days later” value is on record as 79.3%; the “number of Acarina, 1 day later” value is on record as 5 Acarina. Further, in series [1], the “number of Acarina, 2 days later” value is on record as 15 Acarina and the “number of Acarina, 3 days later” value worked out at 29 Acarina.
